Test results published in PubChem BioAssay (NCI).
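GI50: concentration for 50% inhibition of growth. Definition used: TGI = concentration required for complete inhibition of growth.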

What was measured:
Test in all cases: inhibition of tumour cell growth, NCI panel, 384-well format
RXF 393 renal = system: RXF 393 renal
RPMI-8226 leukemia = system: RPMI-8226 leukemia
TK-10 renal = system: TK-10 renal
SN12C renal = system: SN12C renal
HCT-15 colon = system: HCT-15 colon
MDA-MB-435 melanoma = system: MDA-MB-435 melanoma
UO-31 renal = system: UO-31 renal
SF-539 CNS = system: SF-539 CNS
NCI-H226 lung = system: NCI-H226 lung
A549 NSCLC = system: A549 NSCLC
NCI/ADR-RES ovarian = system: NCI/ADR-RES ovarian
SR leukemia = system: SR leukemia
ACHN renal = system: ACHN renal
MOLT-4 leukemia = system: MOLT-4 leukemia
OVCAR-3 ovarian = system: OVCAR-3 ovarian
A498 renal = system: A498 renal
NCI-H23 lung = system: NCI-H23 lung
LOX IMVI melanoma = system: LOX IMVI melanoma
M14 melanoma = system: M14 melanoma
HOP-62 NSCLC = system: HOP-62 NSCLC
UACC-62 melanoma = system: UACC-62 melanoma
NCI-H322M lung = system: NCI-H322M lung
HT29 colon = system: HT29 colon
T-47D breast = system: T-47D breast
MDA-MB-468 breast = system: MDA-MB-468 breast
KM12 colon = system: KM12 colon
SK-MEL-5 melanoma = system: SK-MEL-5 melanoma
OVCAR-4 ovarian = system: OVCAR-4 ovarian
HCC-2998 colon = system: HCC-2998 colon
EKVX NSCLC = system: EKVX NSCLC
SF-268 CNS = system: SF-268 CNS
HOP-92 NSCLC = system: HOP-92 NSCLC
BT-549 breast = system: BT-549 breast
SK-MEL-28 melanoma = system: SK-MEL-28 melanoma
MCF7 breast = system: MCF7 breast
U251 glioblastoma = system: U251 glioblastoma
SNB-75 CNS = system: SNB-75 CNS
PC-3 prostate = system: PC-3 prostate
COLO 205 colon = system: COLO 205 colon
OVCAR-8 ovarian = system: OVCAR-8 ovarian
SW-620 colon = system: SW-620 colon
SF-295 CNS = system: SF-295 CNS
MALME-3M melanoma = system: MALME-3M melanoma
NCI-H522 lung = system: NCI-H522 lung
NCI-H460 NSCLC = system: NCI-H460 NSCLC
SK-OV-3 ovarian = system: SK-OV-3 ovarian
786-0 renal = system: 786-0 renal
CAKI-1 renal = system: CAKI-1 renal
SNB-19 CNS = system: SNB-19 CNS
MDA-MB-231 breast = system: MDA-MB-231 breast
IGROV1 ovarian = system: IGROV1 ovarian
OVCAR-5 ovarian = system: OVCAR-5 ovarian
HL-60(TB) leukemia = system: HL-60(TB) leukemia
HCT-116 colon = system: HCT-116 colon
HS 578T breast = system: HS 578T breast
DU-145 prostate = system: DU-145 prostate
UACC-257 melanoma = system: UACC-257 melanoma

## Cc1ccc(NC(=O)c2ccc(CN3CCN(C)CC3)cc2)cc1Nc1nccc(-c2cccnc2)n1
RXF 393 renal
  GI50: 3.61 µM
  TGI: 16.2 µM
RPMI-8226 leukemia
  GI50: 11.2 µM
  TGI: 23.3 µM
TK-10 renal
  GI50: 20.3 µM
  TGI: 43.1 µM
SN12C renal
  GI50: 24.7 µM
  TGI: 64.4 µM
HCT-15 colon
  GI50: 2480 nM
  TGI: 5.73 µM
MDA-MB-435 melanoma
  GI50: 16.7 µM
  TGI: 31.4 µM
UO-31 renal
  GI50: 15.8 µM
  TGI: 30.6 µM
SF-539 CNS
  GI50: 9.13 µM
  TGI: 21.4 µM
NCI-H226 lung
  GI50: 6.87 µM
  TGI: 19.1 µM
A549 NSCLC
  GI50: 16.5 µM
  TGI: 35.1 µM
NCI/ADR-RES ovarian
  GI50: 17.2 µM
  TGI: 32.1 µM
SR leukemia
  GI50: 8.83 µM
  TGI: 19.6 µM
ACHN renal
  GI50: 15.4 µM
  TGI: 29 µM
MOLT-4 leukemia
  GI50: 4.23 µM
  TGI: 15.4 µM
OVCAR-3 ovarian
  GI50: 17.1 µM
  TGI: 31.8 µM
A498 renal
  GI50: 6.8 µM
  TGI: 19 µM
NCI-H23 lung
  GI50: 11.5 µM
  TGI: 24.3 µM
LOX IMVI melanoma
  GI50: 4.25 µM
  TGI: 14.9 µM
M14 melanoma
  GI50: 5.66 µM
  TGI: 16.7 µM
HOP-62 NSCLC
  GI50: 14.2 µM
  TGI: 27.4 µM
UACC-62 melanoma
  GI50: 13.6 µM
  TGI: 26.7 µM
NCI-H322M lung
  GI50: 8.53 µM
  TGI: 21.2 µM
HT29 colon
  GI50: 2660 nM
  TGI: 6.67 µM
T-47D breast
  GI50: 6.92 µM
  TGI: 20 µM
MDA-MB-468 breast
  GI50: 5.1 µM
  TGI: 17.9 µM
KM12 colon
  GI50: 14.3 µM
  TGI: 27.6 µM
SK-MEL-5 melanoma
  GI50: 10.4 µM
  TGI: 22.2 µM
OVCAR-4 ovarian
  GI50: 16.2 µM
  TGI: 30.7 µM
HCC-2998 colon
  GI50: 5.93 µM
  TGI: 17.5 µM
EKVX NSCLC
  GI50: 15.5 µM
  TGI: 29.8 µM
SF-268 CNS
  GI50: 18.7 µM
  TGI: 36.2 µM
HOP-92 NSCLC
  GI50: 13.7 µM
  TGI: 28.1 µM
BT-549 breast
  GI50: 12.1 µM
  TGI: 24.6 µM
SK-MEL-28 melanoma
  GI50: 14.4 µM
  TGI: 27.7 µM
MCF7 breast
  GI50: 10.6 µM
  TGI: 22.7 µM
U251 glioblastoma
  GI50: 14.1 µM
  TGI: 28 µM
SNB-75 CNS
  GI50: 21.7 µM
  TGI: 36.2 µM
PC-3 prostate
  GI50: 16 µM
  TGI: 31.1 µM
COLO 205 colon
  GI50: 16.3 µM
  TGI: 29.9 µM
OVCAR-8 ovarian
  GI50: 14.8 µM
  TGI: 28.4 µM
SW-620 colon
  GI50: 20.6 µM
  TGI: 41.2 µM
SF-295 CNS
  GI50: 14.2 µM
  TGI: 27.8 µM
MALME-3M melanoma
  GI50: 2580 nM
  TGI: 5.42 µM
NCI-H522 lung
  GI50: 12 µM
  TGI: 24.7 µM
NCI-H460 NSCLC
  GI50: 16.6 µM
  TGI: 30.9 µM
SK-OV-3 ovarian
  GI50: 19.7 µM
  TGI: 37.1 µM
786-0 renal
  GI50: 2870 nM
  TGI: 7.97 µM
CAKI-1 renal
  GI50: 16.7 µM
  TGI: 30.5 µM
SNB-19 CNS
  GI50: 22.1 µM
  TGI: 49.3 µM
MDA-MB-231 breast
  GI50: 12.6 µM
  TGI: 26.7 µM
IGROV1 ovarian
  GI50: 12.5 µM
  TGI: 25.2 µM
OVCAR-5 ovarian
  GI50: 13.4 µM
  TGI: 36.8 µM
HL-60(TB) leukemia
  GI50: 5.97 µM
  TGI: 16 µM
HCT-116 colon
  GI50: 6.25 µM
  TGI: 18.8 µM
HS 578T breast
  GI50: 12.9 µM
  TGI: 25.6 µM
DU-145 prostate
  GI50: 17.1 µM
  TGI: 31.1 µM
UACC-257 melanoma
  GI50: 2490 nM
  TGI: 6.18 µM
